One block for each molecule: values may come before it.
Assay: solvent given as SMILES

Compound: CCN(CC)c1ccc(C=Cc2nc3nc4ccccc4nc3s2)cc1
- fluorescence lifetime (in CCCCCCC(C)O): 0.991 ns
- fluorescence lifetime (in CCOC(C)=O): 1.36 ns
- fluorescence lifetime (in CO): 0.05 ns
- fluorescence lifetime (in CS(C)=O): 0.42 ns
- fluorescence lifetime (in Cc1ccccc1): 0.27 ns
- fluorescence lifetime (in ClC(Cl)Cl): 1.31 ns
- fluorescence lifetime (in ClCCl): 1.62 ns

- fluorescence lifetime (in CS(C)=O): 0.04 ns
Compound: COc1ccc(/N=N/c2c(O)c3ccccc3n(C)c2=O)c(S(=O)(=O)O)c1

Compound: N#Cc1c(-n2c3ccccc3c3ccccc32)cc(N2c3ccccc3C(c3ccccc3)(c3ccccc3)c3ccccc32)cc1-n1c2ccccc2c2ccccc21
- fluorescence lifetime (in Cc1ccccc1): 18.4 ns

- fluorescence lifetime (in CC#N): 3.02 ns
Compound: Cc1ccc(-c2sc(/C(C#N)=C/c3ccc(C#N)cc3)nc2-c2ccc(Cl)cc2)cc1

- fluorescence lifetime (in ClC(Cl)Cl): 2.9 ns
Compound: CCCCN1C(=O)c2cc(Br)c3c4c(Br)cc5c6c(cc(Br)c(c7c(Br)cc(c2c37)C1=O)c64)C(=O)N(CCCC)C5=O

- fluorescence lifetime (in C1CCOC1): 6.2 ns
Compound: Clc1cnc2nn3ccccc3c2n1

- fluorescence lifetime (in CC#N): 0.08 ns
Compound: O=c1oc2ccccc2cc1/C=C/c1ccc([N+](=O)[O-])cc1

- fluorescence lifetime (in CCO): 2.5 ns
- fluorescence lifetime (in ClCCl): 5.6 ns
Compound: N#Cc1cnc(-c2c3ccccc3c(-c3ncc(C#N)cn3)c3ccccc23)nc1

- fluorescence lifetime (in CC1CCCCC1): 3.3 ns
- fluorescence lifetime (in CC#N): 3.6 ns
Compound: C(=C\c1c2ccccc2cc2ccccc12)/c1ccc2ccccc2c1

- fluorescence lifetime (in CC#N): 8.7 ns
- fluorescence lifetime (in CCCCCC): 7.9 ns
Compound: C/C=C/c1ccc(OC)cc1

- fluorescence lifetime (in ClCCl): 7.18 ns
Compound: C1=CC2=CC=CC3C=c4c(cc5cccc6cccc4c65)C(=C1)C23 (stereo not drawn)

- fluorescence lifetime (in CCO): 18 ns
Compound: Cc1cc2cc3cc(C)c(C)cc3cc2cn1

- fluorescence lifetime (in ClCCl): 2.53 ns
Compound: COc1ccc2cc(/C=C/C3=CC(c4ccccc4)=[O+][B-](F)(F)O3)ccc2c1

- fluorescence lifetime (in ClC(Cl)Cl): 7.1 ns
Compound: COc1ccc(-c2cc(-c3ccc(N(C)C)cc3)nc(-c3ccccc3)n2)cc1

Compound: F[B-]1(F)n2c(-c3cccs3)cc(-c3cccs3)c2N=C2C(c3cccs3)=CC(c3cccs3)=[N+]21
- fluorescence lifetime (in C1CCOC1): 1.95 ns
- fluorescence lifetime (in CC#N): 2.23 ns
- fluorescence lifetime (in CS(C)=O): 2.31 ns
- fluorescence lifetime (in Cc1ccccc1): 2.21 ns
- fluorescence lifetime (in ClCCl): 2.36 ns

- fluorescence lifetime (in C1CCOC1): 1.1 ns
- fluorescence lifetime (in C1COCCO1): 0.9 ns
- fluorescence lifetime (in CC#N): 0.9 ns
- fluorescence lifetime (in CCCCCO): 0.7 ns
- fluorescence lifetime (in CCCCO): 0.8 ns
- fluorescence lifetime (in CCCO): 0.7 ns
- fluorescence lifetime (in CCO): 0.8 ns
- fluorescence lifetime (in CO): 1.2 ns
- fluorescence lifetime (in COCCOC): 1.3 ns
- fluorescence lifetime (in ClC(Cl)Cl): 0.9 ns
- fluorescence lifetime (in ClCCl): 1.3 ns
- fluorescence lifetime (in OCCO): 1.1 ns
Compound: COC(=O)c1c2ccccc2nc2ccccc12

- fluorescence lifetime (in C1CCOC1): 2.9 ns
- fluorescence lifetime (in C1COCCO1): 2.9 ns
- fluorescence lifetime (in CC#N): 0.9 ns
- fluorescence lifetime (in CS(C)=O): 0.4 ns
Compound: N#Cc1cc2ccccc2[nH]1

- fluorescence lifetime (in CC#N): 19.4 ns
- fluorescence lifetime (in CO): 17.8 ns
- fluorescence lifetime (in ClCCl): 20.6 ns
- fluorescence lifetime (in OCC(O)CO): 18.3 ns
Compound: CCCn1c2cccc3oc4cccc5c4[c+](c32)c2c1cccc2n5CCC

Compound: OB(O)c1ccc(-c2ccc(N(c3ccccc3)c3ccccc3)cc2)cc1
- fluorescence lifetime (in C1CCCCC1): 1.59 ns
- fluorescence lifetime (in C1CCOC1): 2.14 ns
- fluorescence lifetime (in CC#N): 2.24 ns
- fluorescence lifetime (in CCO): 2.39 ns
- fluorescence lifetime (in CCOC(C)=O): 2.21 ns
- fluorescence lifetime (in CCOCC): 1.69 ns
- fluorescence lifetime (in CO): 2.97 ns

Compound: COC(=O)c1ccc(C#Cc2ccc(N(C)C)cc2)cc1
- fluorescence lifetime (in C1CCCCC1): 1.35 ns
- fluorescence lifetime (in C1CCOC1): 2.43 ns
- fluorescence lifetime (in C1COCCO1): 2.38 ns
- fluorescence lifetime (in CC1CCCO1): 2.68 ns
- fluorescence lifetime (in CC#N): 1.48 ns
- fluorescence lifetime (in CC(C)=O): 1.51 ns
- fluorescence lifetime (in CC(C)CC(C)(C)C): 0.73 ns
- fluorescence lifetime (in CC(C)O): 1.32 ns
- fluorescence lifetime (in CCCCCCCCCCCCCCCC): 0.75 ns
- fluorescence lifetime (in CCCCCCCCCCCCCCCCCl): 0.92 ns
- fluorescence lifetime (in CCOC(C)=O): 2.47 ns
- fluorescence lifetime (in CCOCC): 0.959 ns
- fluorescence lifetime (in CN(C)C=O): 1.7 ns
- fluorescence lifetime (in CS(C)=O): 1.92 ns
- fluorescence lifetime (in Cc1ccccc1): 0.9 ns

Compound: CCC1=C(C)C2=Cc3c(I)c(I)cn3[B-](F)(F)[N+]2=C1C
- fluorescence lifetime (in C1CCCCC1): 0.212 ns
- fluorescence lifetime (in CC(C)=O): 0.097 ns
- fluorescence lifetime (in CCO): 0.09 ns
- fluorescence lifetime (in CCOC(C)=O): 0.116 ns
- fluorescence lifetime (in CO): 0.087 ns
- fluorescence lifetime (in OCC(F)(F)F): 0.11 ns

- fluorescence lifetime (in C1CCCCC1): 8.01 ns
Compound: c1cc2c3c(c1)OCCCCCCCCOc1cccc(c1-c1c4ccccc4c-3c3ccccc13)OCCCCCCCCO2

- fluorescence lifetime (in ClCCl): 63.4 ns
- fluorescence lifetime (in OCC(F)(F)F): 8.5 ns
Compound: C=CCOc1nnc(OCCC(F)(F)C(F)(F)C(F)(F)C(F)(F)C(F)(F)C(F)(F)C(F)(F)C(F)(F)F)nn1

Compound: Cc1ccc(N(c2ccc(C)cc2)c2ccc(-c3ccc4c(c3)C(=O)c3ccccc3C4=O)cc2)cc1
- fluorescence lifetime (in CCCCCC): 6.89 ns
- fluorescence lifetime (in CCOCC): 1.27 ns
- fluorescence lifetime (in Cc1ccccc1): 5.75 ns
- fluorescence lifetime (in ClC(Cl)(Cl)Cl): 9.25 ns

- fluorescence lifetime (in C1CCCCC1): 5.3 ns
- fluorescence lifetime (in CC#N): 5.5 ns
- fluorescence lifetime (in CCOC(C)=O): 5.1 ns
- fluorescence lifetime (in CO): 5 ns
- fluorescence lifetime (in CS(C)=O): 5.6 ns
- fluorescence lifetime (in ClCCl): 6.8 ns
Compound: Nc1ccc2c3cccc4cccc(c5cccc1c52)c43

- fluorescence lifetime (in C1CCCCC1): 4 ns
Compound: c1ccc(-c2cc3cccc[n+]3[b-]3ccc(-c4cc[b-]5c(c4)c(-c4ccccc4)cc4cccc[n+]54)cc32)cc1

- fluorescence lifetime (in C1CCOC1): 4.7 ns
Compound: c1ccc(-c2cnc3nn4ccccc4c3c2)cc1

- fluorescence lifetime (in CCCCCC): 5.2 ns
- fluorescence lifetime (in CCCCCCCCO): 4.65 ns
- fluorescence lifetime (in CCOC(C)=O): 4.93 ns
- fluorescence lifetime (in CN(C)C=O): 4.41 ns
Compound: COc1ccc(C#Cc2c3ccccc3c3n2[B-](F)(F)[N+]2=C(C)C=C(C)C2=C3)cc1

- fluorescence lifetime (in CC#N): 2.1 ns
- fluorescence lifetime (in CC(C)O): 8.52 ns
- fluorescence lifetime (in CCCCO): 7.27 ns
- fluorescence lifetime (in CCCO): 6.93 ns
- fluorescence lifetime (in CCO): 5.98 ns
- fluorescence lifetime (in CO): 3.82 ns
Compound: COc1cccc2c1C(=O)c1ccccc1-2

- fluorescence lifetime (in ClC(Cl)Cl): 2.34 ns
Compound: CN(C)c1ccc(C2=Cc3c4ccccc4cc[n+]3[B-](F)(F)O2)cc1

- fluorescence lifetime (in O): 0.3 ns
Compound: CN1/C(=C/C=C/C2=[N+](CCCCCC(=O)O)c3ccc(S(=O)(=O)[O-])cc3C2(C)C)C(C)(C)c2cc(S(=O)(=O)[O-])ccc21

- fluorescence lifetime (in ClCCl): 6.42 ns
Compound: Cc1cc(C)n2c1C=C1c3ccccc3C(c3c[nH]c4ccccc34)=[N+]1[B-]2(F)F

- fluorescence lifetime (in CO): 0.26 ns
- fluorescence lifetime (in ClC(Cl)Cl): 1.65 ns
Compound: CC[n+]1c(C=C2C(=O)C(C=C3N(C)c4ccc(Cl)cc4C3(C)C)=C2[O-])sc2ccccc21

- fluorescence lifetime (in c1cc(-c2cccc(-n3c4ccccc4c4ccccc43)c2)cc(-n2c3ccccc3c3ccccc32)c1): 15 ns
Compound: CC(C)c1cc(C(C)C)c(B2c3cc(-n4c5ccccc5c5ccccc54)ccc3N(c3ccccc3)c3ccc(-n4c5ccccc5c5ccccc54)cc32)c(C(C)C)c1

Compound: N#Cc1c(-n2c3ccc(I)cc3c3cc(I)ccc32)c(-n2c3ccc(I)cc3c3cc(I)ccc32)c(C#N)c(-n2c3ccc(I)cc3c3cc(I)ccc32)c1-n1c2ccc(I)cc2c2cc(I)ccc21
- fluorescence lifetime (in Cc1ccccc1): 0.1 ns

- fluorescence lifetime (in C1CCCCC1): 1.2 ns
- fluorescence lifetime (in ClC(Cl)Cl): 1.7 ns
Compound: CN(C)c1ccc(C#Cc2ccc(-c3nc(C#N)c(C#N)n3C)cc2)cc1

- fluorescence lifetime (in C1CCOC1): 8.5 ns
Compound: Cc1ccc(-c2ccc(-c3ccc(-c4ccc(-c5ccc(C)cc5)cc4)c(/C(=C(/c4ccccc4)c4cc(-c5ccc(-c6ccc(C)cc6)cc5)ccc4-c4ccc(-c5ccc(C)cc5)cc4)c4ccccc4)c3)cc2)cc1

- fluorescence lifetime (in CC1CCCCC1): 2.6 ns
- fluorescence lifetime (in CC#N): 0.088 ns
Compound: C(=C\c1ccnc2ccccc12)/c1c2ccccc2cc2ccccc12

- fluorescence lifetime (in C1CCOC1): 1.86 ns
Compound: CCn1c2ccccc2c2cc(-c3cc(-c4ccc5c(c4)c4ccccc4n5CC)ncn3)ccc21

- fluorescence lifetime (in C1CCOC1): 3.05 ns
Compound: COc1cc2c(cc1-c1ccc(Cl)cc1)Cc1c3c(c4c(c1-2)-c1cc(OC)c(-c2ccc(Cl)cc2)cc1C4)C(=O)N(CCC(C)C)C3=O

Compound: COc1ccc2c(c1)c1cc(OC)ccc1n2-c1ccc2c(c1)-c1cc(-n3c4ccc(OC)cc4c4cc(OC)ccc43)ccc1P2(=O)c1ccccc1
- fluorescence lifetime (in c1ccc2c(c1)c1ccccc1n2-c1ccc(-c2ccc(-n3c4ccccc4c4ccccc43)cc2)cc1): 16.7 ns

- fluorescence lifetime (in C1CCCCC1): 11 ns
Compound: C[Si](C)(C)c1ccc(C#N)c2ccccc12

- fluorescence lifetime (in ClC(Cl)Cl): 3 ns
Compound: CN1CCCc2cc(C3=Cc4cccc[n+]4[B-](F)(F)O3)ccc21

- fluorescence lifetime (in ClCCl): 15.6 ns
Compound: CCOC(=O)CCCCCn1c2ccc(N)cc2c(=O)c2cc3c(cc21)c(=O)c1cc(N)ccc1n3CCCCCC(=O)OCC

- fluorescence lifetime (in CCCCCC): 66.9 ns
- fluorescence lifetime (in CO): 175 ns
- fluorescence lifetime (in ClCCl): 94.2 ns
Compound: C[Si](C)(C)c1ccc2ccc3cccc4ccc1c2c34

- fluorescence lifetime (in C1CCCCC1): 2.4 ns
Compound: CN(C)c1ccc2nc(-c3ccc(C(=O)OC[C@H](NC(=O)OC(C)(C)C)C(=O)OCc4ccccc4)cc3)sc2c1

Compound: O=C(O)COc1ccc2[nH]c3c(c2c1)CCCC3=O
- fluorescence lifetime (in C1CCOC1): 0.319 ns
- fluorescence lifetime (in C1COCCO1): 0.537 ns
- fluorescence lifetime (in CC#N): 0.969 ns
- fluorescence lifetime (in CCCCCCCCCCCCO): 1.16 ns
- fluorescence lifetime (in CCCCCCCCCCO): 1.14 ns
- fluorescence lifetime (in CCCCCCCCO): 1.19 ns
- fluorescence lifetime (in CCCCCCO): 1.21 ns
- fluorescence lifetime (in CCCCO): 1.11 ns
- fluorescence lifetime (in CCO): 1.52 ns
- fluorescence lifetime (in CCOC(C)=O): 0.464 ns
- fluorescence lifetime (in CN(C)C=O): 1.91 ns
- fluorescence lifetime (in CO): 1.72 ns
- fluorescence lifetime (in CS(C)=O): 2.34 ns
- fluorescence lifetime (in Cc1ccccc1): 0.585 ns
- fluorescence lifetime (in O): 1.77 ns
- fluorescence lifetime (in c1ccccc1): 0.632 ns

- fluorescence lifetime (in ClCCl): 3 ns
Compound: O=P1(c2ccccc2)C(c2ccc(C(F)(F)F)cc2)=Cc2cc3ccccc3cc21 (stereo not drawn)

- fluorescence lifetime (in ClCCl): 6.39 ns
Compound: CCCCCCCCCCCCN1C(=O)c2c(c3ccc4cc(-c5ccc(C(F)(F)F)cc5)c(OC)cc4c3c3c2ccc2cc(-c4ccc(C(F)(F)F)cc4)c(OC)cc23)C1=O

- fluorescence lifetime (in C1CCCCC1): 4.7 ns
- fluorescence lifetime (in CCOC(C)=O): 4.1 ns
- fluorescence lifetime (in CO): 5.1 ns
Compound: c1ccc2cc(-n3cnc4ccccc43)ccc2c1

Compound: Cc1c(C)c(B(c2c(C)c(C)c(C#N)c(C)c2C)c2c(C)c(C)c(N3c4ccccc4Oc4ccccc43)c(C)c2C)c(C)c(C)c1C#N
- fluorescence lifetime (in c1ccc([Si](c2ccccc2)(c2ccc(-n3c4ccccc4c4ccccc43)cc2)c2ccc(-n3c4ccccc4c4ccccc43)cc2)cc1): 32 ns

- fluorescence lifetime (in CC#N): 3.61 ns
Compound: COc1ccc(-c2csc(/C(C#N)=C/c3ccc(Cl)cc3)n2)cc1

- fluorescence lifetime (in O): 0.0008 ns
Compound: Nc1nc2c([nH]c(=O)n2[C@H]2C[C@H](O)[C@@H](CO)O2)c(=O)[nH]1

- fluorescence lifetime (in ClC(Cl)Cl): 3.4 ns
Compound: CCCCCCCCn1c(=O)c2cc3c(C#Cc4ccc(N(c5ccccc5)c5ccccc5)cc4)c4cc5c(=O)n(CCCCCCCC)c(=O)c5cc4c(C#Cc4ccc(N(c5ccccc5)c5ccccc5)cc4)c3cc2c1=O

Source: the Deep4Chem optical property database
